Where two headings read alike, the source gives them in different places.
Tests used:
[1] = Pharmacokinetics from metabolite-corrected arterial plasma TACs after intravenous administration; format: in vivo, Sprague Dawley Rats; settings: for MRT / Vd / half-life: Sprague Dawley, rat, arterial plasma; for MRT: read-out: MRT mean residence time (converted); for Vd / half-life: iv; for half-life: read-out: t1/2 terminal half-life
Description: (§1) Anaesthesia was induced with 5% isoflurane (IsoFlo®, Abbott Laboratories, Abbott Park, IL, USA) and maintained by 2% of isoflurane in 100% O2. During the experiment, rats were kept normothermic using a heating blanket (Homeothermic Blanket Control Unit; Bruker). The rat was positioned in supine position on an operating table and the two distal hind limbs were fixed forming an approximately 30° angle with the horizontal plane. The surgical region was scrubbed using Betadine, starting in the centre, and making a circular sweep outward. A skin incision was made in the femoral region. Soft tissue was dissected to expose the femoral neurovascular bundle, consisting of femoral vein, artery, and nerve. Fine tip forceps were placed between the artery, vein and nerve and were slowly opened to separate the vessels, exposing an approximately 1 cm length section of artery/vein. The vena profunda femoris was sutured to avoid retrograde bleeding via this vessel, and the sapheno-femoral junction was cauterized. A few millimetres from venatomy, a vascular clip was inserted in the direction of the catheter (to control the flow) and a suture was applied in the opposite direction (to avoid retrograde bleeding). The same operation was carried out both on the femoral vein and femoral artery. An appropriate syringe filled with 50 U/mL Heparin/physiologic saline solution was fixed at the terminus of the catheters and these were filled with heparinized saline solution. On the upper half of the vessel circumference, at a 45° angle, an incision was made and the catheter (fine bore polythene tubing: ID 0.58 mm, OD 0.98 mm) was inserted through the venotomy and advanced to the vascular clip. The vascular clip was then removed, and the catheter advanced distally towards the level of the inguinal ligament. The catheter was finally secured to the femoral vein/artery proximally and distally with 2 single knots using 4–0 braided silk suture. The catheters were connected to an in-house developed system composed by a peristaltic pump and gamma-radiation coincidence detector (Bioscan, B-FC-4100). The femoral artery catheter, the gamma detector, the peristaltic pump, and the femoral vein catheter were thus connected in series, to enable the extracorporeal circulation of blood (flow 150 μL/s from femoral artery to femoral vein) and continuous measurement of radioactivity in the blood (Figure 1).
(§2) The labelled compounds were administrated two different ways: (i) intravenous bolus infusion (ca. 37 MBq in 300 μL of saline solution was injected through the femoral vein catheter) and (ii) oral bolus administration. For oral administration, animals were fasted for 5 h. The radioactive dose (ca. 74 MBq in 300 μL of saline solution) was administered using flexible 20-gauge disposable flexible PTFE feeding needles (Fine Science Tools, F.S.T.) and a small animal Laryngoscope (Penn-Century, Model LS-2) for the correct visualization of the oesophagus. The study was conducted under no carrier added (NCA, dose adjusted to 1 μg/Kg) and carrier added (CA, dose adjusted to 5 mg/Kg) conditions. In all cases, data were imported in real time to an excel sheet using PLX-DAX add-on for Microsoft Excel (measured in volts per second).
(§3) Arterial blood samples (1 per animal) were withdrawn (see Figure 1) from the femoral artery catheter and introduced into a capillary (Microhaematocrit capillaries 75 × 1.55, Nahita). Samples were centrifuged at 11,000× g […] for 10 min and the haematocrit was determined. A second blood sample was withdrawn and the amount of radioactivity of a fixed volume (10 µL) was measured in an automatic gamma counter (2470 Wizard, PerkinElmer) to determine Cb (concentration of radioactivity in blood) and convert data imported with PLX-DAX (Volts per seconds) into Bq/s using a previously determined calibration curve. Values were then expressed as percentage of injected dose per gram of blood (% ID/g). […]

[2] = Pharmacokinetics from metabolite-corrected arterial plasma TACs after oral administration; format: in vivo, Sprague Dawley Rats; settings: for MRT / half-life: Sprague Dawley, rat, arterial plasma; for MRT: read-out: MRT mean residence time (converted); for half-life: read-out: t1/2 terminal half-life
Description: as §1, §2, §3

[3] = 1 ug/kg, intravenous, 1 µg/Kg, n = 5
[4] = both groups (1 µg/Kg and 5 mg/Kg) pooled together
[5] = intravenous, both groups (1 µg/Kg and 5 mg/Kg) pooled together

COc1ccc(SCc2cn(CCN(C)C)nn2)cc1 [AHK2, 1-[2-(N,N-dimethylamino)ethyl]-4-[(4-methoxyphenyl)thiomethyl]-1H-1,2,3-triazole]
MRT [1, 3]: 8.48 min | Vd ([1]; 1 ug/kg, intravenous, 1 µg/Kg, n = 5, read-out: Vss volume of distribution at the steady state): 1.03 ± 0.695 L | Vd ([1]; 1 ug/kg, intravenous, 1 µg/Kg, n = 5, read-out: Vz volume of distribution based on the terminal slope): 2 ± 0.43 L | half-life [1, 3]: 11.7 ± 3.22 min | Vd ([1]; 5 mg/kg, intravenous, 5 mg/Kg, n = 5, read-out: Vss volume of distribution at the steady state): 1.13 ± 0.443 L | Vd ([1]; 5 mg/kg, intravenous, 5 mg/Kg, n = 5, read-out: Vz volume of distribution based on the terminal slope): 2.34 ± 0.609 L | half-life ([1]; 5 mg/kg, intravenous, 5 mg/Kg, n = 5): 13.6 ± 3.42 min | Vd ([1]; both groups (1 µg/Kg and 5 mg/Kg) pooled together, read-out: Vss volume of distribution at the steady state): 1.08 ± 0.809 L | Vd ([1]; both groups (1 µg/Kg and 5 mg/Kg) pooled together, read-out: Vz volume of distribution based on the terminal slope): 2.17 ± 1.13 L | half-life [1, 4]: 12.6 ± 3.3 min | MRT ([1]; intravenous, 5 mg/Kg, n = 5): 8.59 min | MRT [1, 5]: 8.53 min | AUC area under the curve ([1]; intravenous, 1 µg/Kg, n = 5): 53.99 ± 11.04 %IDxs/mL | Cl plasma clearance ([1]; intravenous, 1 µg/Kg, n = 5): 1.91 ± 0.41 mL/s | AUC area under the curve ([1]; intravenous, 5 mg/Kg, n = 5): 59.39 ± 19.76 %IDxs/mL | Cl plasma clearance ([1]; intravenous, 5 mg/Kg, n = 5): 1.87 ± 0.73 mL/s | AUC area under the curve [1, 5]: 56.69 ± 15.36 %IDxs/mL | Cl plasma clearance [1, 5]: 1.89 ± 0.55 mL/s | t1/2 terminal half-life [1, 5]: 12.63 ± 3.29 min | AUC area under the curve ([2]; 1 µg/Kg): 6.68 ± 4.35 %IDxs/mL | Cl plasma clearance ([2]; 1 µg/Kg): 4.23 ± 3.58 mL/s | Vz volume of distribution based on the terminal slope ([2]; 1 µg/Kg): 2728.14 ± 1252.35 mL | AUC area under the curve ([2]; 5 mg/Kg): 13.35 ± 5.08 %IDxs/mL | Cl plasma clearance ([2]; 5 mg/Kg): 1.57 ± 0.69 mL/s | Vz volume of distribution based on the terminal slope ([2]; 5 mg/Kg): 1624.28 ± 1299.35 mL | MRT ([2]; 1 ug/kg): 8.51 min | half-life ([2]; 1 ug/kg): 9.16 ± 3.78 min | MRT ([2]; 5 mg/Kg): 9.36 min | half-life ([2]; 5 mg/Kg): 13 ± 11.1 min | MRT [2, 4]: 9 min | half-life [2, 4]: 11.3 ± 8.44 min | AUC area under the curve [2, 4]: 10.49 ± 5.65 %IDxs/mL | Cl plasma clearance [2, 4]: 2.71 ± 2.55 mL/s | Vz volume of distribution based on the terminal slope [2, 4]: 2097.36 ± 1309.61 mL

— publication PMC9953224, “Pharmacokinetic Evaluation of New Drugs Using a Multi-Labelling Approach and PET Imaging: Application to a Drug Candidate with Potential Application in Neuromuscular Disorders” (Biomedicines, 2023)
